US9133230B2, “Hydrazone derivatives having potent antitumor activity toward multi-drug resistant tumor cells” (THE UNITED STATES OF AMERICA AS REPRESENTED BY THE …, priority 2011, dated 2015)

Legend:
Assay type in all cases: cell-based
HL60 = test: MTS cytotoxicity on MDR tumor cells, HL60; settings: Homo sapiens, HL-60, Vincristine (VCR) sensitive, 72 hr incubation
breast cancer cell lines = test: NCI 60 human tumor cell line screen, breast; settings: Homo sapiens, arithmetic mean of two to nine cancer cell lines, read-out: Inhibitory concentration GI50, breast
Source text: (§1) Selected compounds were submitted for testing in the organ-specific panel of human tumor cell lines at the National Cancer Institute, Bethesda, Md. This screen utilized 60 human tumor cell lines, representing leukemia, melanoma, and cancers of the lung, colon, brain, ovary, kidney, prostate, and breast (Boyd, M. R., “Status of the NCl preclinical antitumor drug discovery screen”. In Principles and practice of oncology updates; De Vita, V. T., Jr. Hellman, S., Rosenberg, S. A., Eds.; Lippincott: Philadelphia, Pa., 1989; Vol. 3, pp 1-12).
(§2) The MG MID value is the average of the GI50 values for all the cell lines tested for drug concentrations in the range of 10^−4-10^−8 M (See website domain: dtp.nci.nih.gov/dtp).

[1] = system: prostate cancer cell lines; test: NCI 60 human tumor cell line screen, prostate; settings: Homo sapiens, arithmetic mean of two to nine cancer cell lines, read-out: Inhibitory concentration GI50, prostrate
Source text: as §1, §2

HL60-VCR = test: MTS cytotoxicity on MDR tumor cells, HL60-VCR; settings: HL60/VCR, Vincristine (VCR) resistant, 72 hr incubation
[2] = system: human colorectal carcinoma HT29; test: Western blot of signal transduction pathways in HT29 cells; settings: HT29, IC50 dose
[3] = system: ovarian cancer cell lines; test: NCI 60 human tumor cell line screen, ovarian; settings: Homo sapiens, arithmetic mean of two to nine cancer cell lines, read-out: Inhibitory concentration GI50, ovarian
Source text: as §1, §2

[4] = system: human myelogenous leukemia K562; test: MTS cytotoxicity assay, K562; settings: Homo sapiens, K562, 48 h incubation
Protocol: In order to obtain information about the growth-inhibiting action of hydrazones reported in the present invention on tumor cells, growth inhibition was assessed for the following human tumor cell lines: human myelogenous leukemia K562, human cervical adenocarcinoma HeLa, human colon adenocarcinoma Caco-2, human colon carcinoma HT-29, human colon carcinoma HCT-15, and human breast carcinoma MCF-7.
The K562, HeLa, HT-29, HCT-15, Caco-2, and MCF-7 cell lines were obtained from the American type Culture Collection (ATCC, Manassas, Va.). K562 cells were maintained in RPMI 1640 medium (Gibco/Life Technologies, Gaithersburg, Md.) containing 10% heat-inactivated fetal bovine serum (FBS) (Atlanta Biologicals, Atlanta, Ga.) and 10000 U/L penicillin and 50 mg/L streptomycin. HeLa, HT-29, HCT-15, Caco-2 and MCF-7 cells were maintained in MEM with Earl's balanced salts, 10% FBS, penicillin, and streptomycin as above. Logarithmically growing HT-29, Caco-2, and MCF-7 cells were incubated with 0.05% trypsin containing 1 mM EDTA at 37° C. for about 5 min until cells were nonadherent and formed a single cell suspension. Trypsin activity was neutralized by adding 20-fold excess of the serum-containing medium. Cells were cultured at 37° C. in an atmosphere of air and 5% CO2.
Cytotoxicity assays were conducted by tetrazolium reduction of 3-(4,5-dimethylthiazol-2-yl)-5-(3-carboxymethoxyphenyl)-2-(4-sulfophenyl)-2H-tetrazolium (MTS) with N-methylphenazonium methyl sulfate (PMS) (CellTiter Assay, Promega, Madison, Wis.). Logarithmically growing cells were plated in 0.1 mL aliquots in 96-well microtiter plates. Cells were plated at an initial density of about 5000 cells/mL and allowed to acclimatize for 24 h. Cell suspensions were treated with various dilutions of compounds in triplicate, mixed well, and allowed to incubate for 48 h at 37° C. in an atmosphere of air and 5% CO2. To the cell suspension was added 20 μL of tetrazolium reagent, the mixture was incubated for 2 h at 37° C. in an atmosphere of air and 5% CO2, and absorbance at 490 nm was read by microplate reader. Control plates with serial dilutions of cell types were counted as a control for the assay. In all cases, controls indicated a linear response versus cell number, R^2≧0.99.

CNS cancer cell lines = test: NCI 60 human tumor cell line screen, CNS; settings: Homo sapiens, arithmetic mean of two to nine cancer cell lines, read-out: Inhibitory concentration GI50, CNS
Source text: as §1, §2

leukemia cell lines = test: NCI 60 human tumor cell line screen, leukemia; settings: Homo sapiens, arithmetic mean of two to nine cancer cell lines, read-out: Inhibitory concentration GI50, leukemia
Source text: as §1, §2

C(=NNc1ncnc2[nH]cnc12)c1ccccn1 [I-18, 6-(2-(Pyridin-2-ylmethylene)hydrazinyl)-9H-purine]
GI50 (HL60): 1200 nM | GI50 (breast cancer cell lines): 1150 nM | GI50 [1]: 598 nM | GI50 (HL60-VCR): 700 nM | Activation of NFkB (p50) [2]: observed | GI50 [3]: 629 nM | GI50 [4]: 2300 nM | GI50 (CNS cancer cell lines): 633 nM | GI50 (leukemia cell lines): 966 nM
